Laboratory results published in the supplement of paper PMC7017272.
± gives the standard deviation of the averaged measurements.

Legend:
Conditions in all cases: treatment time: 3 days
UT-SCC-73 [1] = assay: drug sensitivity score (DSS); higher = more sensitive; extreme values may be limits of the assay
How it was run: (§1)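 HPV-negative HNSCC cell lines were plated at 500 cells/well in 384-well plates, either on plastic, on wells coated with Matrigel or Myogel (500 µg/mL), or embedded in Matrigel or Myogel plus rat collagen I. Each compound was tested at five 10-fold concentrations over 3 days. Viability was measured by CellTiter-Glo 2.0 luminescence, and IC50, maximal inhibition and drug sensitivity score came from percent-inhibition dose–response curves fitted in the FIMM pipeline after normalisation to vehicle (0.1% DMSO) and cell-killing control wells.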

UT-SCC-81 [2] = assay: as above
How it was run: as §1

UT-SCC-42A [3] = assay: as above
How it was run: as §1

UT-SCC-28 [4] = assay: as above
How it was run: as §1

UT-SCC-42B [5] = assay: as above
How it was run: as §1

UT-SCC-40 [6] = assay: as above
How it was run: as §1

UT-SCC-44 [7] = assay: as above
How it was run: as §1

UT-SCC-106A [8] = assay: as above
How it was run: as §1

UT-SCC-8 [9] = assay: as above
How it was run: as §1

UT-SCC-73 [10] = assay: maximal % inhibition of viability relative to DMSO; higher = stronger effect
Method: (§2)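 HNSCC cell lines (500 cells/well, 384-well) were cultured on plastic, on top of (2D) or embedded (3D) in Matrigel or human leiomyoma matrix Myogel (500 ug/mL; Myogel 3D mixed with rat collagen I). Cells were treated for 3 days with 5 ten-fold concentrations of each drug, and viability was read by CellTiter-Glo. Viability was normalised to DMSO and benzethonium chloride controls and fitted with the FIMM DSRT pipeline to give IC50 (nM), maximal % inhibition and DSS. Suffixes _1/_2/_3 are replicates. Only inhibition-mode (IC50) fits are kept.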

UT-SCC-81 [11] = assay: as above
Method: as §2

UT-SCC-42A [12] = assay: as above
Method: as §2

UT-SCC-28 [13] = assay: as above
Method: as §2

UT-SCC-42B [14] = assay: as above
Method: as §2

UT-SCC-40 [15] = assay: as above
Method: as §2

UT-SCC-44 [16] = assay: as above
Method: as §2

UT-SCC-106A [17] = assay: as above
Method: as §2

UT-SCC-8 [18] = assay: as above
Method: as §2

UT-SCC-14 = assay: as above
Method: as §2

UT-SCC-24B = assay: as above
Method: as §2

[19] = culture condition: embedded in Matrigel
[20] = culture condition: embedded in Myogel + collagen I
[21] = culture condition: on top of Matrigel
[22] = culture condition: on top of Myogel
[23] = culture condition: plastic 2D (no matrix)

## CO[C@H]1C[C@@H]2CC[C@@H](C)[C@@](O)(O2)C(=O)C(=O)N2CCCC[C@H]2C(=O)O[C@H]([C@H](C)C[C@@H]2CC[C@@H](OP(C)(C)=O)[C@H](OC)C2)CC(=O)[C@H](C)/C=C(\C)[C@@H](O)[C@@H](OC)C(=O)[C@H](C)C[C@H](C)/C=C/C=C/C=C/1C [Ridaforolimus]
UT-SCC-73 [1]; [19]
  drug sensitivity score: 7.23 ± 3 DSS
UT-SCC-73 [1]; [20]
  drug sensitivity score: 8.57 ± 6 DSS
UT-SCC-73 [1]; [21]
  drug sensitivity score: 6.9 ± 1.3 DSS
UT-SCC-73 [1]; [22]
  drug sensitivity score: 8 ± 0.79 DSS
UT-SCC-73 [1]; [23]
  drug sensitivity score: 4.93 ± 0.94 DSS
UT-SCC-81 [2]; [19]
  drug sensitivity score: 8.6 ± 4.5 DSS
UT-SCC-81 [2]; [20]
  drug sensitivity score: 11.8 ± 3.1 DSS
UT-SCC-81 [2]; [21]
  drug sensitivity score: 9.37 ± 2.3 DSS
UT-SCC-81 [2]; [22]
  drug sensitivity score: 10.9 ± 4 DSS
UT-SCC-81 [2]; [23]
  drug sensitivity score: 8.77 ± 5 DSS
UT-SCC-42A [3]; [19]
  drug sensitivity score: 3.43 ± 0.55 DSS
UT-SCC-42A [3]; [20]
  drug sensitivity score: 5.73 ± 1.1 DSS
UT-SCC-42A [3]; [21]
  drug sensitivity score: 6.43 ± 1.4 DSS
UT-SCC-42A [3]; [22]
  drug sensitivity score: 5.2 ± 1.3 DSS
UT-SCC-42A [3]; [23]
  drug sensitivity score: 5.6 ± 2.1 DSS
UT-SCC-28 [4]; [19]
  drug sensitivity score: 4.87 ± 2.8 DSS
UT-SCC-28 [4]; [20]
  drug sensitivity score: 4.37 ± 4 DSS
UT-SCC-28 [4]; [21]
  drug sensitivity score: 6.87 ± 2.6 DSS
UT-SCC-28 [4]; [23]
  drug sensitivity score: 6.37 ± 3.5 DSS
UT-SCC-42B [5]; [19]
  drug sensitivity score: 0.8 ± 0.76 DSS
UT-SCC-42B [5]; [21]
  drug sensitivity score: 0.233 ± 0.4 DSS
UT-SCC-42B [5]; [22]
  drug sensitivity score: 0.367 ± 0.4 DSS
UT-SCC-42B [5]; [23]
  drug sensitivity score: 0.4 ± 0.36 DSS
UT-SCC-40 [6]; [19]
  drug sensitivity score: 4.97 ± 2.8 DSS
UT-SCC-40 [6]; [20]
  drug sensitivity score: 7.83 ± 3.9 DSS
UT-SCC-40 [6]; [21]
  drug sensitivity score: 4.8 ± 0.78 DSS
UT-SCC-40 [6]; [22]
  drug sensitivity score: 4.23 ± 0.46 DSS
UT-SCC-40 [6]; [23]
  drug sensitivity score: 3.77 ± 0.47 DSS
UT-SCC-44 [7]; [19]
  drug sensitivity score: 6.7 ± 3.6 DSS
UT-SCC-44 [7]; [20]
  drug sensitivity score: 6.23 ± 0.99 DSS
UT-SCC-44 [7]; [21]
  drug sensitivity score: 10.7 ± 2.2 DSS
UT-SCC-44 [7]; [22]
  drug sensitivity score: 11.2 ± 1.4 DSS
UT-SCC-44 [7]; [23]
  drug sensitivity score: 9.63 ± 3 DSS
UT-SCC-106A [8]; [19]
  drug sensitivity score: 4.2 ± 1.4 DSS
UT-SCC-106A [8]; [20]
  drug sensitivity score: 2.63 ± 0.21 DSS
UT-SCC-106A [8]; [21]
  drug sensitivity score: 6.4 ± 3.5 DSS
UT-SCC-106A [8]; [22]
  drug sensitivity score: 2.9 ± 1.1 DSS
UT-SCC-106A [8]; [23]
  drug sensitivity score: 7.57 ± 1.7 DSS
UT-SCC-8 [9]; [19]
  drug sensitivity score: 9.67 ± 4 DSS
UT-SCC-8 [9]; [20]
  drug sensitivity score: 4.03 ± 1 DSS
UT-SCC-8 [9]; [21]
  drug sensitivity score: 9.27 ± 3.7 DSS
UT-SCC-8 [9]; [22]
  drug sensitivity score: 12.5 ± 4.2 DSS
UT-SCC-8 [9]; [23]
  drug sensitivity score: 10.2 ± 3.6 DSS
UT-SCC-73 [10]; [19]
  maximal % inhibition of viability: 38.7 ± 16%
UT-SCC-73 [10]; [20]
  maximal % inhibition of viability: 42.4 ± 11%
UT-SCC-73 [10]; [21]
  maximal % inhibition of viability: 30.6 ± 3.4%
UT-SCC-73 [10]; [22]
  maximal % inhibition of viability: 40.2 ± 1.8%
UT-SCC-73 [10]; [23]
  maximal % inhibition of viability: 31.5 ± 4.3%
UT-SCC-81 [11]; [19]
  maximal % inhibition of viability: 50 ± 11%
UT-SCC-81 [11]; [20]
  maximal % inhibition of viability: 64 ± 9.1%
UT-SCC-81 [11]; [21]
  maximal % inhibition of viability: 43.9 ± 1.1%
UT-SCC-81 [11]; [22]
  maximal % inhibition of viability: 54.6 ± 4.2%
UT-SCC-81 [11]; [23]
  maximal % inhibition of viability: 48.4 ± 5.3%
UT-SCC-42A [12]; [19]
  maximal % inhibition of viability: 29.5 ± 6.2%
UT-SCC-42A [12]; [20]
  maximal % inhibition of viability: 42.7 ± 5%
UT-SCC-42A [12]; [21]
  maximal % inhibition of viability: 33.3 ± 2.6%
UT-SCC-42A [12]; [22]
  maximal % inhibition of viability: 37.1 ± 6.1%
UT-SCC-42A [12]; [23]
  maximal % inhibition of viability: 35.8 ± 5%
UT-SCC-28 [13]; [19]
  maximal % inhibition of viability: 30.9 ± 9.3%
UT-SCC-28 [13]; [20]
  maximal % inhibition of viability: 31.5 ± 18%
UT-SCC-28 [13]; [21]
  maximal % inhibition of viability: 34.8 ± 4.5%
UT-SCC-28 [13]; [23]
  maximal % inhibition of viability: 33.4 ± 2.9%
UT-SCC-42B [14]; [19]
  maximal % inhibition of viability: 16.8 ± 7.8%
UT-SCC-42B [14]; [21]
  maximal % inhibition of viability: 14.9 ± 2.2%
UT-SCC-42B [14]; [22]
  maximal % inhibition of viability: 14.2 ± 3.1%
UT-SCC-42B [14]; [23]
  maximal % inhibition of viability: 14.5 ± 1.9%
UT-SCC-40 [15]; [19]
  maximal % inhibition of viability: 29.4 ± 6.9%
UT-SCC-40 [15]; [20]
  maximal % inhibition of viability: 39 ± 9.4%
UT-SCC-40 [15]; [21]
  maximal % inhibition of viability: 27 ± 5.7%
UT-SCC-40 [15]; [22]
  maximal % inhibition of viability: 27.4 ± 1.4%
UT-SCC-40 [15]; [23]
  maximal % inhibition of viability: 22.4 ± 1.4%
UT-SCC-44 [16]; [19]
  maximal % inhibition of viability: 32.8 ± 14%
UT-SCC-44 [16]; [20]
  maximal % inhibition of viability: 44.1 ± 8.6%
UT-SCC-44 [16]; [21]
  maximal % inhibition of viability: 39.2 ± 2.1%
UT-SCC-44 [16]; [22]
  maximal % inhibition of viability: 36.9 ± 4.2%
UT-SCC-44 [16]; [23]
  maximal % inhibition of viability: 33.7 ± 6.2%
UT-SCC-106A [17]; [19]
  maximal % inhibition of viability: 35 ± 4.2%
UT-SCC-106A [17]; [20]
  maximal % inhibition of viability: 27.4 ± 2.9%
UT-SCC-106A [17]; [21]
  maximal % inhibition of viability: 34.5 ± 4%
UT-SCC-106A [17]; [22]
  maximal % inhibition of viability: 27.5 ± 2.6%
UT-SCC-106A [17]; [23]
  maximal % inhibition of viability: 41 ± 1.9%
UT-SCC-8 [18]; [19]
  maximal % inhibition of viability: 45 ± 7%
UT-SCC-8 [18]; [20]
  maximal % inhibition of viability: 33.2 ± 7.1%
UT-SCC-8 [18]; [21]
  maximal % inhibition of viability: 38.4 ± 1.7%
UT-SCC-8 [18]; [22]
  maximal % inhibition of viability: 49.2 ± 8.1%
UT-SCC-8 [18]; [23]
  maximal % inhibition of viability: 46.9 ± 5.1%
UT-SCC-14; [19]
  maximal % inhibition of viability: 53.4 ± 6.2%
UT-SCC-14; [20]
  maximal % inhibition of viability: 57.5 ± 6.6%
UT-SCC-14; [21]
  maximal % inhibition of viability: 54.5 ± 9.4%
UT-SCC-14; [22]
  maximal % inhibition of viability: 48.6 ± 5.5%
UT-SCC-14; [23]
  maximal % inhibition of viability: 50.7 ± 12%
UT-SCC-24B; [19]
  maximal % inhibition of viability: 21.4 ± 6.2%
UT-SCC-24B; [20]
  maximal % inhibition of viability: 38.1 ± 5.8%
UT-SCC-24B; [21]
  maximal % inhibition of viability: 26.7 ± 6.1%
UT-SCC-24B; [22]
  maximal % inhibition of viability: 31.1 ± 7.1%
UT-SCC-24B; [23]
  maximal % inhibition of viability: 27.4 ± 3.4%
